Series [1] relates to PC12-HS cells. The series can be described thus: Evaluation method B: neurite-outgrowth promoting activity in the presence of NGF. It counts as cell-based, rat. Conditions: for Neurite-outgrowth rate (%) / Action on PC12-HS neurite-outgrowth promotion (500 ng/ml): NGF 10 ng/ml; for Action on PC12-HS neurite-outgrowth promotion (500 ng/ml): 3 days, class of neurite-outgrowth rate; for neurite-outgrowth promoting activity (in words): 200 and 1,000 nM, comment on Table 2. An excerpt:
(§1) As a model of the nerve cell, the NGF (nerve growth factor) highly sensitive strain of PC12 cell derived from the rat adrenal pheochromocytoma (hereinafter referred to as “PC12-HS cell”; JCRB cell bank, National Research and Development Institute of Health and Nutrition), which has been widely used as a suitable model for research on human neurodegenerative disease, was used. As the test compound, […] of trimethine cyanine dye compounds; NK-5 (Chemical formula 2), NK-36 (Chemical formula 3), NK-44 (Chemical formula 5) and dye compounds represented by Chemical formulae 12 to 18, and NK-6 (Chemical formula 7), which is a monomethine cyanine dye, were selected. In addition, two kinds of ethylene cross-linked dyes (Chemical formulae 19 and 20), 15 kinds of monomethine cyanine dyes (Chemical formulae 21 to 35), and seven kinds of trimethine cyanine dyes (Chemical formulae 36 to 42), which were expected to have a good neurocyte growth acceleration activity and/or neurite-outgrowth promoting activity in the screening disclosed in Patent literature 6, were also re-evaluated for comparison. The Chemical formulae 12 to 42 are shown below.
(§2) The cyanine dye compounds subjected to the test (purity 97% by mass or more, synthesized by Hayashibara Co., Ltd., Okayama, Japan) were individually dissolved in DMSO (product number “D8418”, commercialized by SIGMA Corporation) at a concentration of 5 mg/ml, and the solutions were then filtered through DMSO-resistant membrane (“Millex-LGS LLG025SS”, commercialized by Millipore Corporation) and stored at 25° C. in a dark condition. At the time of use, they were further diluted with Dulbecco's Medium (hereinafter, abbreviated as “D-MEM medium”, commercialized by Nissui Pharmaceutical Co., Ltd.) supplemented by 10% by volume of fetal bovine serum (FBS), and subjected to the test.
As in the case of evaluation of neurocyte growth accelerating activity (Evaluation method A), 50 μl/well of each test compound solution, prepared by diluting with the culture medium to give a final concentration of 500 ng/ml, and the culture medium containing 20 ng/ml of mouse NGF (mouse derived, final concentration 10 ng/ml, commercialized by Chemicon International, Inc., CA, USA) (50 μl/well) were added to the precultured PC12-HS cells in each well, and then cultured for three days. Culture medium was removed on day 3 of culture, and cells were fixed by adding 100 μl/well of 10% by volume of glutaraldehyde and standing for 20 minutes at room temperature. As a negative control, PC12-HS cells, cultured for three days with culture medium, were fixed with glutaraldehyde similarly as above. Fixed cells were observed under a microscope to assess the neurite-outgrowth. The neurite-outgrowth rate (%) was determined by observing the cells using a microscope by adjusting the magnitude to give about 100 cells in one visual field, counting the number of cells having neurites twice or more in length of the cell body (major axis), dividing by the total number of cells in the same visual field, and multiplying by 100. Measurements were carried out at three points for each test compound. […] In this experiment, the neurite-outgrowth rate was 5% or less when NGF was added (final concentration 10 ng/ml) without the addition of the test compound.
The method was based on Experiment 1-1, except the concentrations of the test compounds were set to three doses of 40 nM, 200 nM and 1,000 nM for evaluation method A (neurocyte growth accelerating effect), and two doses of 200 nM and 1,000 nM for evaluation method B (neurite outgrowth promoting effect). Measurements were performed in triplicate for each concentration of each test compound in both evaluation methods A and B. The result of the evaluation method A was expressed as a cell proliferation rate (%) by determined a relative percentage (%) when the value of the negative control to which the test compound was not added, was regarded as 100%. […]

The subject of series [2] is PC12-HS cells. Briefly: Evaluation method A: neurocyte growth acceleration activity (Alamar blue). Format: cell-based, rat. Conditions: for Cell proliferation rate (%): negative control = 100%; for Action on PC12-HS growth acceleration (50 ng/ml): 3 days culture, class of cell proliferation rate vs negative control = 100%; for neurocyte growth acceleration activity (in words): 40, 200 and 1,000 nM, comment on Table 2; for cytotoxicity to PC12-HS cells: concentration range tested.
Text: as §1, §2
PC12-HS cells were subjected to tests after frozen stock cultured cells were thawed and cultured with a D-MEM medium supplemented with 10% by volume of FBS (Hereinafter, when the term “culture” is simply used, it means that the cells are statically cultured in an incubator controlled at 37° C. under 5% by volume of CO2 conditions). Cells used in the test were collected using 0.25% by weight of trypsin solution, then diluted with a D-MEM medium supplemented with 10% by volume of FBS (hereinafter referred to as “culture medium”), seeded into collagen-coated 96-well plates (commercialized by Falcon, Tokyo, Japan, “Microtest Plate, Cell Culture, Flat Bottom”) to obtain 5×10^3 cells/100 μl/well, and cultured for 24 hours (hereinafter referred to as “pre-culture”). Then, the above test samples were diluted with a culture medium, and 100 μl of diluted solution of the test compounds were added to each well so that the final concentration of the test compounds in the wells became 50 ng/ml, and the cells were cultured for another three days. On day 3, the cultures supernatant was removed from each well, 200 μl of culture medium containing 10% by volume of Alamar blue reagents (commercialized by Trek Diagnostic Systems Inc., Ohio, USA) were added to each well, and the cells were cultured for 6 hours. After culturing for 6 hours, the cells were measured for fluorescent intensity at a wavelength of 544-590 nm by “FlexStation 3”, a product name of a fluorescent plate reader (commercialized by Japan Molecular Devices Corporation, Tokyo, Japan). […] Measurements were performed for each test compound in triplicate, and the mean values were shown.
The method was based on Experiment 1-1, except the concentrations of the test compounds were set to three doses of 40 nM, 200 nM and 1,000 nM for evaluation method A (neurocyte growth accelerating effect), and two doses of 200 nM and 1,000 nM for evaluation method B (neurite outgrowth promoting effect). […]

As to `CCN1C=CC(=Cc2cc[n+](CC)c3ccccc23)c2ccccc21.[I-]` [NK-6], the entries for the “Neurite-outgrowth rate (%)” value with PC12-HS cells [1] (1.000 nM) and in the series with PC12-HS cells [1] (200 nM) were 41.5% and 32.6%, respectively. In the series on PC12-HS cells [1], the “Action on PC12-HS neurite-outgrowth promotion (500 ng/ml)” value (“Action … (500 ng/ml)” below) is listed as “⊚ (45% or more was judged to be more potent than NK-4 (“double circle”))”. For the same compound, the “neurite-outgrowth promoting activity (in words)” value in the series with PC12-HS cells [1] is “stronger neurite-outgrowth promoting activity than NK-4”. In addition, the “Cell proliferation rate (%)” value with PC12-HS cells [2] (1.000 nM) was 141.9%; with PC12-HS cells [2] (40 nM) it was 105.0%; with PC12-HS cells [2] (200 nM), 117.0%. For the same compound, the “Action on PC12-HS growth acceleration (50 ng/ml)” value (from here on “Action … (50 ng/ml)”) in the series on PC12-HS cells [2] is given as “◯ (the relative value of 130% to 169% was judged to be equivalent to NK-4 (“circle”))”. In addition, in the series on PC12-HS cells [2], the “neurocyte growth acceleration activity (in words)” value was “slightly weaker than that of NK-4”. Moreover, the “cytotoxicity to PC12-HS cells” value with PC12-HS cells [2] is recorded as “do not show cytotoxicity”.

As for `CCN1C=CC(=CC=Cc2cc[n+](CC)c3ccccc23)c2ccccc21.[Br-]` [NK-36], the “Neurite-outgrowth rate (%)” value in the series with PC12-HS cells [1] (1.000 nM) stood at 28.7%. In addition, the “Neurite-outgrowth rate (%)” value with PC12-HS cells [1] (200 nM) is recorded as 33.8%. In addition, in the series on PC12-HS cells [1], the “Action … (500 ng/ml)” value is on record as “◯ (When the mean neurite-outgrowth rate was 25 to 44%, it was judged to be equivalent to the positive control NK-4 (“circle”))” and the “neurite-outgrowth promoting activity (in words)” value is reported as “almost equivalent neurite-outgrowth promoting rate to NK-4”. Also, the “Cell proliferation rate (%)” value in the series with PC12-HS cells [2] (1.000 nM) turned out to be 137.2%. Also, the “Cell proliferation rate (%)” value in the series on PC12-HS cells [2] (40 nM) is on record as 123.0%. Further, in the series on PC12-HS cells [2], the “Action … (50 ng/ml)” value is reported as “◯ (the relative value of 130% to 169% was judged to be equivalent to NK-4 (“circle”))”, the “neurocyte growth acceleration activity (in words)” value is given as “slightly weaker than that of NK-4” and the “cytotoxicity to PC12-HS cells” value was “do not show cytotoxicity”. In addition, the “Cell proliferation rate (%)” value in the series with PC12-HS cells [2] (200 nM) was determined as 115.5%.

Turning to `CCCCN1C=CC(=CC=Cc2cc[n+](CCCC)c3ccccc23)c2ccccc21.[I-]` [NK-44], in the series on PC12-HS cells [1] (1.000 nM), the “Neurite-outgrowth rate (%)” value is given as 22.9%. For the same compound, the “Neurite-outgrowth rate (%)” value in the series on PC12-HS cells [1] (200 nM) is given as 29.3%. Also, in the series on PC12-HS cells [1], the “Action … (500 ng/ml)” value was “◯ (When the mean neurite-outgrowth rate was 25 to 44%, it was judged to be equivalent to the positive control NK-4 (“circle”))” and the “neurite-outgrowth promoting activity (in words)” value is recorded as “almost equivalent neurite-outgrowth promoting rate to NK-4”. Further, the “Cell proliferation rate (%)” value in the series on PC12-HS cells [2] (1.000 nM) was found to be 78.5%. In the series on PC12-HS cells [2] (40 nM), the “cell proliferation relative to the negative control” value is “about 1.9 times” and the “Cell proliferation rate (%)” value is listed as 193.4%. Also, in the series on PC12-HS cells [2], the “Action … (50 ng/ml)” value was “⊚ (170% or higher was judged to be significantly stronger than NK-4 (“double circle”))”, the “neurocyte growth acceleration activity (in words)” value is “strongest activity” and the “cytotoxicity to PC12-HS cells” value is reported as “do not show cytotoxicity”. For the same compound, the “Cell proliferation rate (%)” value with PC12-HS cells [2] (200 nM) came out at 154.3%.

For the origin of these results see patent US20220031690A1, “ANTI-NEURODEGENERATIVE DISEASE AGENT” (Hayashibara Co., Ltd., priority 2018, published 2022).
